Measured values as given in patent US20240374631A1, “A COMPOSITION FOR IMPROVING GUT MICROBIOTA, BEHAVIOURAL PATTERN, ALPHA-SYNUCLEIN LEVELS, SLEEP PATTERN AND/OR SERUM MELATONIN” (GN Corporation Co Ltd, priority 2021, published 2024).

Tested on: gut microbiota
Test: Gut microbiome analysis (16S rRNA sequencing of fecal samples) in STAM model of NASH
Type: in vivo, C57BL/6J mice
Conditions: post-intervention
Description: The study is reported in accordance with Animal Research: Reporting of In Vivo Experiments (ARRIVE) guidelines. C57BL/6J mice were obtained from Japan SLC, Inc. (Japan). All animals used in this study were cared for under the following guidelines: Act on Welfare and Management of Animals (Ministry of the Environment, Japan, Act No. 105 of Oct. 1, 1973), standards relating to the care and management of laboratory animals and relief of pain (Notice No. 88 of the Ministry of the Environment, Japan, Apr. 28, 2006) and the guidelines for proper conduct of animal experiments (Science Council of Japan, Jun. 1, 2006). Protocol approvals were obtained from SMC Laboratories, Japan's IACUC (Study reference no: […] Mice were maintained in a specific pathogen-free (SPF) facility under controlled conditions of temperature (23±3° C.), humidity (50±20%), lighting (12-hour artificial light and dark cycles; light from 8:00 to 20:00) and air exchange. The STAM model of NASH was induced as previously described [D10]. Mice were given a single subcutaneous injection of 200 μg streptozotocin (STZ, Sigma-Aldrich, USA) solution 2 days after birth and fed with a high-fat diet (HFD, 57 kcal % fat, Cat #HFD32, CLEA Japan, Inc., Japan) from 4-9 weeks of age. All mice develop liver steatosis and diabetes and at […] mice had established steatohepatitis, histologically. Studygroups: There were five study groups, described below. Eight mice were included in each study group. Eight NASH mice were orally administered vehicle supplemented with AFO-202 Beta Glucan at a dose of 1 mg/kg in a volume of 5 mL/kg once daily from 6 to 9 weeks of age. Eight NASH mice were orally administered vehicle supplemented with Telmisartan at a dose of 10 mg/kg once daily from 6 to 9 weeks of age. Frequency: Fecal samples were collected at the 6 weeks of age (before administration) and 9 weeks of age (before sacrifice). Procedure: At 6 weeks of age, fecal samples were collected from each mouse by clean catch method. […] A sterile petri dish was placed on the bench. Gently massage the abdomen, position the bottom of mouse over a fresh petri dish, and collect 1-2 fecal pellets. At sacrifice, fecal samples were aseptically collected from cecum. The tubes with feces were placed on ice immediately. These tubes were snap frozen in liquid nitrogen and stored at -80° C. for shipping. In this analysis, the 16S rRNA sequence data acquired by the next-generation sequencer from the fecal […] was used to perform community analysis using the QIIME2 program for microbial community analysis. The raw read data in FASTQ format output from the next-generation sequencer was trimmed to remove adapter sequences and low QV regions that may be included in the data. Cutadapt was used to remove adapter sequences from DNA sequencing reads. Trimmomatic was used as read trimming tool for Illumina NGS data. The adapter sequence was trimmed using the adapter trimming program “cutadapt” if the Trimming of the region at the end of the read sequence overlapped the corresponding sequence by at least one base (mismatch tolerance: 20%). When reads containing N were present in at least one of Read1 and Read2, both Read1 and Read2 were removed. Trimming of low QV regions was performed on the read data after processing using the QV trimming program “Trimmomatic” under the following conditions. The window of 20 bases is slid from the 5' side, and the area where the average QV is less than 20 is trimmed. After trimming, only the reads with more than 50 bases remaining in both Read1 and Read2 were taken as output. The microbial community analysis based on 16S rRNA sequence was performed on the sequence data trimmed in the previous section using the microbial community analysis program “QIIME2”. The annotation program “sklearn” included in QIIME2 is used to annotate the ASV (OTU) sequences. […]

`CCCc1nc2c(C)cc(-c3nc4ccccc4n3C)cc2n1Cc1ccc(-c2ccccc2C(=O)O)cc1` [Telmisartan] was tested, and the “Abundance: S24-7, —, —” value (line r298) was 0, the “Abundance: Lachnospiraceae, —, —” value (line r300) was 60 and the “Abundance: Ruminococcaceae, Oscillospira, —” value (“Abundance … Oscillospira, —” for short) (line r301) was 30. The “Abundance: S24-7, —, —” value (line r302) was 0, the “Abundance: —, —, —” value (line r303) was 107 and the “Abundance … Oscillospira, —” value (line r304) was 9. The “Abundance: Bacteroidaceae, Bacteroides, acidifaciens” value (line r305) was 0, the “Abundance: Bacteroidaceae, Bacteroides, acidifaciens” value (line r306) was 11 and the “Abundance: Lachnospiraceae, Dorea, —” value (line r307) was 8. The “Abundance: Ruminococcaceae, Other, Other” value (line r308) was 11, the “Abundance: Lachnospiraceae, —, —” value (line r309) was 13 and the “Abundance: Lachnospiraceae, —, —” value (line r310) was 0. For the same compound, the “Abundance: S24-7, —, —” value (line r311) was 1, the “Abundance: Lachnospiraceae, Other, Other” value (line r312) was 0 and the “Abundance: —, —, —” value (line r313) was 0. The “Abundance … Oscillospira, —” value (line r314) was 9, the “Abundance … Oscillospira, —” value (line r315) was 0 and the “Abundance: Lachnospiraceae, —, —” value (line r316) was 19. For the same compound, the “Abundance: Erysipelotrichaceae, —, —” value (line r317) was 0, the “Abundance: S24-7, —, —” value (line r318) was 0 and the “Abundance: Lachnospiraceae, —, —” value (line r319) was 9. For the same compound, the “Abundance … Oscillospira, —” value (line r320) was 0, the “Abundance: Lachnospiraceae, —, —” value (line r321) was 14 and the “Abundance: Other, Other, Other” value (line r322) was 0. For the same compound, the “Abundance: F16, —, —” value (line r323) was 0, the “Abundance: Christensenellaceae, —, —” value (line r324) was 5 and the “Abundance: Lachnospiraceae, Other, Other” value (line r325) was 0. For the same compound, the “Abundance … Oscillospira, —” value (line r326) was 0, the “Abundance: —, —, —” value (line r327) was 0 and the “Abundance: Ruminococcaceae, Other, Other” value (line r328) was 0. The “Abundance: —, —, —” value (line r329) was 0, the “Abundance: Lachnospiraceae, Other, Other” value (line r330) was 0 and the “Abundance: Other, Other, Other” value (line r331) was 0. The “Abundance: Enterococcaceae, Vagococcus, —” value (line r332) was 26, the “Abundance: Ruminococcaceae, Ruminococcus, —” value (line r333) was 0 and the “Abundance: Erysipelotrichaceae, Coprabacillus, —” value (line r334) was 0. For the same compound, the “Abundance: Other, Other, Other” value (line r335) was 0, the “Abundance … Oscillospira, —” value (line r336) was 9 and the “Abundance … Oscillospira, —” value (line r337) was 0. The “Abundance: —, —, —” value (line r338) was 0, the “Abundance: Lachnospiraceae, —, —” value (line r339) was 0 and the “Abundance … Oscillospira, —” value (line r340) was 31. For the same compound, the “Abundance: Lachnospiraceae, Coprococcus, —” value (line r341) was 0, the “Abundance: Ruminococcaceae, Other, Other” value (line r342) was 5 and the “Abundance: —, —, —” value (line r343) was 0. The “Abundance: Erysipelotrichaceae, —, —” value (line r344) was 2, the “Abundance: Rikenellaceae, —, —” value (line r345) was 11 and the “Abundance: —, —, —” value (line r346) was 0. For the same compound, the “Abundance: —, —, —” value (line r347) was 40, the “Abundance: —, —, —” value (line r348) was 0 and the “Abundance: Lachnospiraceae, —, —” value (line r349) was 0. For the same compound, the “Abundance: —, —, —” value (line r350) was 0, the “Abundance: Lachnospiraceae, Clostridium, Other” value (line r351) was 28 and the “Abundance: Erysipelotrichaceae, —, —” value (line r352) was 0. For the same compound, the “Abundance: Streptococcaceae, Streptococcus, minor” value (line r353) was 0, the “Abundance … Oscillospira, —” value (line r354) was 0 and the “Abundance: —, —, —” value (line r355) was 0. The “Abundance: Lachnospiraceae, Other, Other” value (line r356) was 0, the “Abundance: Other, Other, Other” value (line r357) was 0 and the “Abundance: —, —, —” value (line r358) was 0. For the same compound, the “Abundance: —, —, —” value (line r359) was 0, the “Abundance: Lachnospiraceae, —, —” value (line r362) was 12 and the “Abundance: Streptococcaceae, Streptococcus, —” value (line r363) was 0. The “Abundance: S24-7, —, —” value (line r365) was 0, the “Abundance: Other, Other, Other” value (line r367) was 42 and the “Abundance: [Mogibacteriaceae], —, —” value (line r368) was 0. The “Abundance: Enterobacteriaceae, Enterobacter, Other” value (line r369) was 0, the “Abundance: Erysipelotrichaceae, —, —” value (line r371) was 19 and the “Abundance: Aerococcaceae, Aerococcus, —” value (line r372) was 39. For the same compound, the “Abundance … Oscillospira, —” value (line r373) was 0, the “Abundance … Oscillospira, —” value (line r374) was 12 and the “Abundance: Other, Other, Other” value (line r375) was 0. For the same compound, the “Abundance: Lachnospiraceae, Coprococcus, —” value (line r377) was 0, the “Abundance: Other, Other, Other” value (line r378) was 0 and the “Abundance: Family Lachnospiraceae, Genus Other, Species Other” value (table row r380) was 0. The “Abundance: Family Ruminococcaceae, Genus Oscillospira, Species —” value (shortened to “Abundance … Genus Oscillospira, Species —”) (table row r381) was 0, the “Abundance: Family S24-7, Genus —, Species —” value (“Abundance: Family S24-7, Genus” for short) (table row r382) was 0 and the “Abundance: Family Ruminococcaceae, Genus Ruminococcus, Species —” value (shortened to “Abundance … Genus Ruminococcus, Species —”) (table row r383) was 0. For the same compound, the “Abundance … Genus Oscillospira, Species —” value (table row r384) was 0, the “Abundance … Genus Ruminococcus, Species —” value (table row r389) was 0 and the “Abundance: Family Lachnospiraceae, Genus —, Species —” value (table row r390) was 0. The “Abundance … Genus Oscillospira, Species —” value (table row r391) was 0, the “Abundance: Family Corynebacteriaceae, Genus Corynebacterium, Species stationis” value (table row r394) was 0 and the “Abundance: Family Ruminococcaceae, Genus Other, Species Other” value (table row r395) was 0. For the same compound, the “Abundance: Family S24-7, Genus” value (table row r396) was 13, the “Abundance … Genus Oscillospira, Species —” value (table row r397) was 26 and the “Abundance … Genus Oscillospira, Species —” value (table row r398) was 0. For the same compound, the “Abundance … Genus Ruminococcus, Species —” value (table row r399) was 0, the “Abundance: Family [Mogibacteriaceae], Genus —, Species —” value (table row r400) was 0 and the “Abundance: Family Erysipelotrichaceae, Genus Coprobacillus, Species —” value (table row r401) was 0. The “Abundance: Family Erysipelotrichaceae, Genus Clostridium, Species cocleatum” value (table row r402) was 1, the “Abundance: Family S24-7, Genus” value (table row r403) was 0 and the “Abundance: Family Coriobacteriaceae, Genus —, Species —” value (table row r404) was 0. The “Abundance: Family Coriobacteriaceae, Genus Adlercreutzia, Species —” value (table row r405) was 0, the “Abundance: Family Enterococcaceae, Genus Vagococcus, Species —” value (table row r407) was 0 and the “Abundance: Family [Mogibacteriaceae], Genus —, Species —” value (table row r409) was 6. The “Abundance: Family S24-7, Genus” value (table row r413) was 11, the “Abundance … Genus Oscillospira, Species —” value (table row r414) was 0 and the “Abundance: Family Planococcaceae, Genus Sporosarcina, Species —” value (table row r415) was 0. The “Abundance: Family Erysipelotrichaceae, Genus Other, Species Other” value (table row r417) was 0, the “Abundance … Genus Ruminococcus, Species —” value (table row r419) was 0 and the “Abundance: Family Coriobacteriaceae, Genus Adlercreutzia, Species —” value (table row r423) was 0. The “Abundance: Family Other, Genus Other, Species Other” value (table row r424) was 0 and the “Abundance: Family Ruminococcaceae, Genus Other, Species Other” value (table row r425) was 0.
